Several values for one entry are separate records, joined by “and”; a condition that tells them apart may be missing. Identical values can stand only once. Inconclusive results and toxic doses are left out.
Test system: L1210 leukemia ip in BDF1 mice, survival T/C
Experiment: NCI In Vivo Anticancer Drug Screen. Data for tumor model L1210 Leukemia (intraperitoneal) in B6D2F1 (BDF1) mice
Settings: endpoint: mean survival time, higher = longer survival
Outline: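 Antitumor effect is assessed in tumor-bearing animals. Survival in the compound arm is compared with a vehicle-dosed control arm and expressed as their quotient.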

[1] = dose: 100.0 mg/kg/injection, schedule: Q04DX003 (ip), vehicle: saline
[2] = dose: 200.0 mg/kg/injection, schedule: Q04DX003 (ip), vehicle: saline
[3] = dose: 400.0 mg/kg/injection, schedule: Q04DX003 (ip), vehicle: saline
[4] = dose: 100.0 mg/kg/injection, schedule: Q04DX002 (ip), vehicle: saline with Tween-80
[5] = dose: 200.0 mg/kg/injection, schedule: Q04DX002 (ip), vehicle: saline with Tween-80
[6] = dose: 400.0 mg/kg/injection, schedule: Q04DX002 (ip), vehicle: saline with Tween-80
[7] = dose: 100.0 mg/kg/injection, schedule: Q01DX001 (ip), vehicle: saline
[8] = dose: 200.0 mg/kg/injection, schedule: Q01DX001 (ip), vehicle: saline
[9] = dose: 400.0 mg/kg/injection, schedule: Q01DX001 (ip), vehicle: saline
[10] = dose: 100.0 mg/kg/injection, schedule: Q04DX002 (ip), vehicle: Klucel (hydroxypropylcellulose) (HPC)
[11] = dose: 200.0 mg/kg/injection, schedule: Q04DX002 (ip), vehicle: Klucel (hydroxypropylcellulose) (HPC)
[12] = dose: 400.0 mg/kg/injection, schedule: Q04DX002 (ip), vehicle: Klucel (hydroxypropylcellulose) (HPC)
[13] = dose: 100.0 mg/kg/injection, schedule: Q01DX009 (ip), vehicle: Klucel (hydroxypropylcellulose) (HPC)
[14] = dose: 100.0 mg/kg/injection, schedule: Q04DX003 (ip), vehicle: Klucel (hydroxypropylcellulose) (HPC)
[15] = dose: 200.0 mg/kg/injection, schedule: Q01DX009 (ip), vehicle: Klucel (hydroxypropylcellulose) (HPC)
[16] = dose: 200.0 mg/kg/injection, schedule: Q04DX003 (ip), vehicle: Klucel (hydroxypropylcellulose) (HPC)
[17] = dose: 400.0 mg/kg/injection, schedule: Q01DX009 (ip), vehicle: Klucel (hydroxypropylcellulose) (HPC)
[18] = dose: 400.0 mg/kg/injection, schedule: Q04DX003 (ip), vehicle: Klucel (hydroxypropylcellulose) (HPC)
[19] = dose: 100.0 mg/kg/injection, schedule: Q01DX009 (ip), vehicle: saline with Tween-80
[20] = dose: 200.0 mg/kg/injection, schedule: Q01DX009 (ip), vehicle: saline with Tween-80
[21] = dose: 100.0 mg/kg/injection, schedule: Q04DX003 (ip), vehicle: saline with Tween-80
[22] = dose: 200.0 mg/kg/injection, schedule: Q04DX003 (ip), vehicle: saline with Tween-80
[23] = dose: 400.0 mg/kg/injection, schedule: Q01DX009 (ip), vehicle: saline with Tween-80
[24] = dose: 400.0 mg/kg/injection, schedule: Q04DX003 (ip), vehicle: saline with Tween-80
[25] = dose: 100.0 mg/kg/injection, schedule: Q01DX001 (ip), vehicle: Klucel (hydroxypropylcellulose) (HPC)
[26] = dose: 200.0 mg/kg/injection, schedule: Q01DX001 (ip), vehicle: Klucel (hydroxypropylcellulose) (HPC)
[27] = dose: 400.0 mg/kg/injection, schedule: Q01DX001 (ip), vehicle: Klucel (hydroxypropylcellulose) (HPC)

CC1(C(=O)O)C2CCC(C2)C1C(=O)O (stereo not given)
T/C [1]: 107 % of control
T/C [2]: 102 % of control
T/C [3]: 105 % of control

CCc1nc(N[N+](=O)[O-])nc(CC)c1-c1ccc([N+](=O)[O-])cc1O
T/C [4]: 97 % of control
T/C [5]: 87 % of control
T/C [6]: 95 % of control

S=c1nc[nH]c2c1ncn2CN1CCOCC1
T/C (dose: 30.0 mg/kg/injection, schedule: Q01DX015 (ip), vehicle: saline): 119 % of control
T/C (dose: 42.0 mg/kg/injection, schedule: Q01DX009 (ip), vehicle: carboxymethylcellulose (CMC)): 118 % of control
T/C (dose: 80.0 mg/kg/injection, schedule: Q01DX015 (ip), vehicle: saline): 153 % of control
T/C (dose: 100.0 mg/kg/injection, schedule: Q01DX001 (ip), vehicle: carboxymethylcellulose (CMC)): 112 % of control
T/C [7]: 110 % of control
T/C (dose: 120.0 mg/kg/injection, schedule: Q01DX009 (ip), vehicle: carboxymethylcellulose (CMC)): 168 % of control
T/C (dose: 135.0 mg/kg/injection, schedule: Q01DX015 (ip), vehicle: saline): 152 % of control
T/C (dose: 177.0 mg/kg/injection, schedule: Q01DX001 (ip), vehicle: saline): 152 % of control
T/C [8]: 122 % of control
T/C (dose: 200.0 mg/kg/injection, schedule: Q01DX009 (ip), vehicle: carboxymethylcellulose (CMC)): 91 % of control
T/C (dose: 266.0 mg/kg/injection, schedule: Q01DX001 (ip), vehicle: saline): 163 % of control
T/C (dose: 400.0 mg/kg/injection, schedule: Q01DX001 (ip), vehicle: carboxymethylcellulose (CMC)): 164 % of control and 166 % of control
T/C [9]: 152 % of control
T/C (dose: 600.0 mg/kg/injection, schedule: Q01DX001 (ip), vehicle: saline): 152 % of control

COc1ccc2c3c1OC1C=CC(O)C4C(C2)N(C)CCC314 (stereo not given)
T/C [7]: 98 % of control
T/C [8]: 89 % of control

CC1(C)OCC(C(O)C(O)C2COC(C)(C)O2)O1 (stereo not given)
T/C (dose: 100.0 mg/kg/injection, schedule: Q04DX002 (ip), vehicle: saline): 96 % of control
T/C (dose: 200.0 mg/kg/injection, schedule: Q04DX002 (ip), vehicle: saline): 104 % of control
T/C (dose: 400.0 mg/kg/injection, schedule: Q04DX002 (ip), vehicle: saline): 101 % of control

COc1ccc(NCCOc2ccccc2Br)cc1
T/C (dose: 100.0 mg/kg/injection, schedule: Q01DX009 (ip), vehicle: other): 96 % of control
T/C (dose: 200.0 mg/kg/injection, schedule: Q01DX009 (ip), vehicle: other): 96 % of control
T/C (dose: 400.0 mg/kg/injection, schedule: Q01DX009 (ip), vehicle: other): 104 % of control

O=C1c2ccccc2C2(Br)C(=O)c3ccccc3C12Br (stereo not given)
T/C [10]: 104 % of control
T/C [11]: 101 % of control
T/C [12]: 93 % of control

Clc1cc(Cl)c2c(c1)Cc1cc(Cl)cc(Cl)c1-2
T/C [13]: 94 % of control
T/C [14]: 92 % of control
T/C [15]: 91 % of control
T/C [16]: 89 % of control
T/C [17]: 87 % of control
T/C [18]: 102 % of control

S=c1[nH]c2ccccc2o1
T/C [19]: 93 % of control
T/C (dose: 100.0 mg/kg/injection, schedule: Q04DX003 (ip), vehicle: other): 101 % of control
T/C [20]: 100 % of control
T/C (dose: 200.0 mg/kg/injection, schedule: Q04DX003 (ip), vehicle: other): 93 % of control
T/C (dose: 400.0 mg/kg/injection, schedule: Q04DX003 (ip), vehicle: other): 96 % of control

Cc1cnc(-n2cc(C)c(-c3ccccc3O)n2)nc1-c1ccccc1O
T/C [10]: 96 % of control
T/C [11]: 88 % of control
T/C [12]: 100 % of control

O=[N+]([O-])c1ccc(/C=N/c2nn[nH]n2)cc1 (tested in a mixture with another compound)
T/C [1]: 98 % of control
T/C [2]: 100 % of control
T/C [3]: 96 % of control

O=C(Nc1ccccc1Cl)Oc1ccccc1Cc1ccccc1
T/C [13]: 96 % of control
T/C [14]: 107 % of control
T/C [15]: 93 % of control
T/C [16]: 90 % of control
T/C [17]: 115 % of control
T/C [18]: 93 % of control

O=C1C=CC(=O)N1CN1CCOCC1
T/C (dose: 3.12 mg/kg/injection, schedule: Q01DX009 (ip), vehicle: saline with Tween-80): 96 % of control
T/C (dose: 6.25 mg/kg/injection, schedule: Q01DX009 (ip), vehicle: saline with Tween-80): 96 % of control
T/C (dose: 12.5 mg/kg/injection, schedule: Q01DX009 (ip), vehicle: saline with Tween-80): 93 % of control

Cc1ccc([As](=O)(O)O)cc1F
T/C (dose: 1.56 mg/kg/injection, schedule: Q01DX009 (ip), vehicle: Klucel (hydroxypropylcellulose) (HPC)): 94 % of control
T/C (dose: 3.13 mg/kg/injection, schedule: Q01DX009 (ip), vehicle: Klucel (hydroxypropylcellulose) (HPC)): 94 % of control
T/C (dose: 6.25 mg/kg/injection, schedule: Q01DX009 (ip), vehicle: Klucel (hydroxypropylcellulose) (HPC)): 88 % of control

CC1CC(=O)N(Cl)C(=O)N1Cl (stereo not given)
T/C (dose: 75.0 mg/kg/injection, schedule: Q01DX001 (ip), vehicle: saline): 102 % of control
T/C (dose: 150.0 mg/kg/injection, schedule: Q01DX001 (ip), vehicle: saline): 106 % of control

COC(=O)C(CSCSC)NC(=O)NC1CCCCC1 (stereo not given)
T/C [19]: 91 % of control
T/C [21]: 102 % of control
T/C [20]: 91 % of control
T/C [22]: 89 % of control
T/C [23]: 91 % of control
T/C [24]: 91 % of control

O=C(C1CC1)C1OC1c1ccccc1 (stereo not given)
T/C [25]: 96 % of control
T/C [26]: 100 % of control
T/C [27]: 94 % of control

COc1ccc(C(=O)Nc2cccc(C(F)(F)F)c2)cc1
T/C (dose: 100.0 mg/kg/injection, schedule: Q01DX001 (ip), vehicle: saline with Tween-80): 97 % of control
T/C [19]: 100 % of control
T/C [4]: 100 % of control and 105 % of control
T/C (dose: 200.0 mg/kg/injection, schedule: Q01DX001 (ip), vehicle: saline with Tween-80): 100 % of control
T/C [20]: 121 % of control
T/C [5]: 100 % of control and 108 % of control
T/C (dose: 400.0 mg/kg/injection, schedule: Q01DX001 (ip), vehicle: saline with Tween-80): 98 % of control
T/C [23]: 118 % of control
T/C [6]: 107 % of control and 90 % of control

Cc1cc(O)c(C(=O)/C=C/c2ccccc2)c(=O)[nH]1
T/C [7]: 86 % of control
T/C [8]: 96 % of control
T/C [9]: 92 % of control

CN1CN(c2ccccc2)C2(CCN(Cc3cc(=O)c4ccccc4o3)CC2)C1=O
T/C [14]: 102 % of control
T/C [16]: 101 % of control
T/C [18]: 98 % of control

OC(CN1CCCCC1)c1cccs1 (stereo not given)
T/C (dose: 6.25 mg/kg/injection, schedule: Q04DX003 (ip), vehicle: saline with Tween-80): 94 % of control
T/C (dose: 12.5 mg/kg/injection, schedule: Q04DX003 (ip), vehicle: saline with Tween-80): 97 % of control
T/C (dose: 25.0 mg/kg/injection, schedule: Q04DX003 (ip), vehicle: saline with Tween-80): 94 % of control

O=[N+]([O-])c1ccc(Cc2ccc([N+](=O)[O-])cc2)cc1
T/C [21]: 102 % of control
T/C [22]: 109 % of control
T/C [24]: 98 % of control

Cc1cc(C)n(/N=C/c2c[nH]c3ccccc23)c(=O)c1C#N
T/C [25]: 97 % of control
T/C [14]: 97 % of control
T/C [26]: 97 % of control
T/C [16]: 94 % of control
T/C [27]: 96 % of control
T/C [18]: 97 % of control

CC(=O)/C=C(/C)O
T/C [1]: 100 % of control
T/C [2]: 118 % of control

From PubChem BioAssay AID248 (DTP/NCI, 2004)
